# “And” between values parts separate entries of the source, which are not always exact repeats. Identical values can stand only once.
# Key:
# [1] = test system: calf intestinal mucosa adenosine deaminase (Sigma Chemical Company); test: adenosine deaminase activity on Ara-A, Cyclaradine and Aristeromycin (Example 14); format: in vitro ADME; conditions: 1×10^-4 M, pH 7.5, 17.75 units/ml enzyme
# Text: The deaminated products were further identified by thin-layer chromatography using authentic samples for reference.
# [2] = toxicity in uninfected (toxicity control) or treated mice; format: in vivo, Random-bred Swiss mice, female; conditions: for Avg. Body Wt. on Day 0 / Avg. Body Wt. on Day 7 / Avg. Body Wt. on Day 14 / Avg. Body Wt. on Day 21 / Mortality: No. Dead/Total No. of Mice / mortality at 504 h: uninfected toxicity controls; for mortality at 504 h: mouse, in vivo, ip
# Description: River Breeding Laboratories, Inc.
# cellulose (HPC) at four different
# centrations so that a single daily
# volume of 0.01 ml/gm of body
# The drugs were administered once
# for 7 days beginning 4 hours after […]
# [3] = test system: adenosine deaminase; conditions: background statement; cited from earlier work
# [4] = test system: calf intestinal adenosine deaminase (type III, Sigma); test: resistance to deamination by adenosine deaminase (Example 11); conditions: for deamination by adenosine deaminase: conditions under which ara-A is completely deaminated
# [5] = cytotoxicity, growing P-388 mouse lymphoid leukemia cells in presence of drug; conditions: p-388 cells
# [6] = test system: adenosine deaminase; test: inhibition of enzymatic deamination of ara-A or adenosine; format: biochemical, calf; conditions: substrates ara-A or adenosine
# [7] = test system: herpes simplex virus (HSV) type 1 (strain HF); format: cell-based, herpes simplex virus type 1
# [8] = test system: vaccinia virus (VV) (Strain Lederle Chorioallantoic); test: microbe, parasite or virus in culture; format: cell-based
# [9] = test system: HSV and VV; test: organism not typed; format: cell-based
smiles,measurement,setting,value
Nc1ncnc2c1ncn2[C@@H]1C[C@H](CO)[C@@H](O)[C@H]1O [Aristeromycin],conversion to deaminated product,"[1]; 2 hours, 25° C",complete conversion
"Nc1ncnc2c1ncn2[C@@H]1O[C@H](CO)[C@@H](O)[C@@H]1O [ara-A, reference compound]",mortality and weight loss,"[2]; 755.3 mg/kg/day, qd 1-7",Significant mortality and severe weight loss
same,Avg. Body Wt. on Day 0,[2]; Ara-A 125 mg/kg/day,21.7 gm
same,Avg. Body Wt. on Day 7,[2]; Ara-A 125 mg/kg/day,25.4 gm
same,Avg. Body Wt. on Day 14,[2]; Ara-A 125 mg/kg/day,27.3 gm
same,Avg. Body Wt. on Day 21,[2]; Ara-A 125 mg/kg/day,29.5 gm
same,Mortality: No. Dead/Total No. of Mice,[2]; Ara-A 125 mg/kg/day,0/10
same,Avg. Body Wt. on Day 0,[2]; Ara-A 250 mg/kg/day,21.7 gm
same,Avg. Body Wt. on Day 7,[2]; Ara-A 250 mg/kg/day,25.1 gm
same,Avg. Body Wt. on Day 14,[2]; Ara-A 250 mg/kg/day,26.6 gm
same,Avg. Body Wt. on Day 21,[2]; Ara-A 250 mg/kg/day,29.1 gm
same,Mortality: No. Dead/Total No. of Mice,[2]; Ara-A 250 mg/kg/day,0/10
same,toxicity of dose levels,"[2]; ara-A 125 to 250 mg/kg/day, qd 1-7",non-toxic
same,mortality at 504 h,[2]; Ara-A 125 mg/kg/day,0%
same,mortality at 504 h,[2]; Ara-A 250 mg/kg/day,0%
same,approx. LD10,"[2]; qd 1-7 schedule, mice",~600 mg/kg/day
same,conversion to deaminated product,"[1]; 2 hours, 25° C",complete conversion
same,deamination by adenosine deaminase,[3],rapidly deaminated
same,deamination rate,[4],1 μmole/min/unit of enzyme
same,deamination by adenosine deaminase,[4],completely deaminated
same,CC50,[5],10 µM
"Nc1ncnc2c1ncn2[C@@H]1C[C@H](CO)[C@@H](O)[C@@H]1O (relative stereo) [cyclaradine, 9-[α-(2α,3β-Dihydroxy-4α(hydroxymethyl)cyclopentyl)]adenine]",inhibition of enzymatic deamination,[6],did not inhibit
same,Virus Rating (VR),[7],2.2 and 3.5
same,EC50,"[8]; Orthopoxvirus vaccinia, HEp-2, read-out: MED50 (minimum drug dose required for 50% inhibition of virus-induced cpe)",9 µg/mL
same,Virus Rating (VR),"[8]; vaccinia virus, HEp-2 cells, VR ≥ 1.0 definite, 0.5-0.9 marginal to moderate, < 0.5 no apparent antiviral activity",1.5 and 1.7
same,weight loss or apparent toxicity,[2]; 750 mg/kg/day (equimolar to ara-A 755.3 mg/kg/day),no significant weight loss or apparent toxicity
same,lethal toxicity for uninfected animals,"[2]; 900 mg/kg/day, qd 1-7, uninfected",apparently not lethally toxic
same,Avg. Body Wt. on Day 0,[2]; C-Ara-A 112.5 mg/kg/day,21.8 gm
same,Avg. Body Wt. on Day 7,[2]; C-Ara-A 112.5 mg/kg/day,24.5 gm
same,Avg. Body Wt. on Day 14,[2]; C-Ara-A 112.5 mg/kg/day,26.5 gm
same,Avg. Body Wt. on Day 21,[2]; C-Ara-A 112.5 mg/kg/day,28.5 gm
same,Mortality: No. Dead/Total No. of Mice,[2]; C-Ara-A 112.5 mg/kg/day,0/5
same,Avg. Body Wt. on Day 0,[2]; C-Ara-A 225 mg/kg/day,21.8 gm
same,Avg. Body Wt. on Day 7,[2]; C-Ara-A 225 mg/kg/day,24.4 gm
same,Avg. Body Wt. on Day 14,[2]; C-Ara-A 225 mg/kg/day,26.8 gm
same,Avg. Body Wt. on Day 21,[2]; C-Ara-A 225 mg/kg/day,29.3 gm
same,Mortality: No. Dead/Total No. of Mice,[2]; C-Ara-A 225 mg/kg/day,0/5
same,Avg. Body Wt. on Day 0,[2]; C-Ara-A 450 mg/kg/day,21.6 gm
same,Avg. Body Wt. on Day 7,[2]; C-Ara-A 450 mg/kg/day,22.6 gm
same,Avg. Body Wt. on Day 14,[2]; C-Ara-A 450 mg/kg/day,25.9 gm
same,Avg. Body Wt. on Day 21,[2]; C-Ara-A 450 mg/kg/day,28.3 gm
same,Mortality: No. Dead/Total No. of Mice,[2]; C-Ara-A 450 mg/kg/day,0/5
same,Avg. Body Wt. on Day 0,[2]; C-Ara-A 900 mg/kg/day,21.8 gm
same,Avg. Body Wt. on Day 7,[2]; C-Ara-A 900 mg/kg/day,22.5 gm
same,Avg. Body Wt. on Day 14,[2]; C-Ara-A 900 mg/kg/day,25.3 gm
same,Avg. Body Wt. on Day 21,[2]; C-Ara-A 900 mg/kg/day,28 gm
same,Mortality: No. Dead/Total No. of Mice,[2]; C-Ara-A 900 mg/kg/day,0/5
same,toxicity of dose levels,"[2]; cyclaradine 112.5 to 450 mg/kg/day, qd 1-7",non-toxic
same,tolerability compared with ara-A,"[2]; higher dose levels, mice",obviously better tolerated than ara-A
same,mortality at 504 h,[2]; C-Ara-A 112.5 mg/kg/day,0%
same,mortality at 504 h,[2]; C-Ara-A 225 mg/kg/day,0%
same,mortality at 504 h,[2]; C-Ara-A 450 mg/kg/day,0%
same,mortality at 504 h,[2]; C-Ara-A 900 mg/kg/day,0%
same,conversion to deaminated product,[1]; overnight incubation,no conversion to deaminated product was detected
same,antiviral activity against HSV and VV,[9],highly significant antiviral activity
same,EC50,[9]; read-out: approximate MED50,~9 µg/mL
same,deamination by adenosine deaminase,[4],no detectable deamination
same,CC50,[5],10 µM
